Results published in the NIST ThermoML archive (doi:10.1021/je030133a).
“And” between values parts separate entries of the source, which are not always exact repeats. Identical values can stand only once.

Experiments:
[1] = 101.3 kPa, Liquid
[2] = xn = mol fraction of the nth substance listed; details: 101.3 kPa, Liquid

C1COCCO1 [1,4-dioxane]
[1]
Details	mass density [kg/m3]	viscosity
303.15 K	1022.3	1.099 mPa·s and 1.098 mPa·s
308.15 K	1016.7	1.03 mPa·s
313.15 K	1012	0.9575 mPa·s

ClC(Cl)(Cl)Cl [tetrachloromethane] + CCCCO
[2]
Details	mass density, 303.15 K [kg/m3]	mass density, 308.15 K [kg/m3]	mass density, 313.15 K [kg/m3]	viscosity, 303.15 K [mPa·s]	viscosity, 308.15 K [mPa·s]	viscosity, 313.15 K [mPa·s]
x1 = 0.0954	885	876	873.9	2.028	1.698	1.498
x1 = 0.1918	964.8	955.5	953	1.708	1.444	1.293
x1 = 0.2891	1044.5	1034.7	1031.7	1.496	1.276	1.172
x1 = 0.3875	1123.5	1113.8	1110.1	1.356	1.157	1.069
x1 = 0.4869	1201.2	1191.8	1187.6	1.248	1.096	1.038
x1 = 0.5874	1277.3	1268.5	1264.2	1.157	1.052	0.9981
x1 = 0.6889	1352.2	1344.8	1340.9	1.069	1.004	0.9502
x1 = 0.7401	1389.9	1382.7	1378.8	1.025	0.9705	0.9211
x1 = 0.7915	1427.1	1420.2	1415.9	1.005	0.9552	0.8947
x1 = 0.8432	1463.6	1457.8	1454.2	0.9778	0.9211	0.8727
x1 = 0.8952	1501.2	1495.7	1491.8	0.9554	0.8975	0.8612
x1 = 0.9475	1538.9	1534.3	1530.5	0.9164	0.8787	0.8346
x1 = 1	1580.6	1575.7	1571.3	0.8689	0.8307	0.8072

C1COCCO1 [1,4-dioxane] + ClC(Cl)(Cl)Cl
[2], x1 = 1
Details	mass density [kg/m3]	viscosity [mPa·s]
303.15 K	1022.3	1.099
308.15 K	1016.7	1.03
313.15 K	1012	0.9575

CCCCO [butan-1-ol] + C1COCCO1
[2], x2 = 0
Details	mass density [kg/m3]	viscosity [mPa·s]
303.15 K	805.7	2.282
308.15 K	797.2	1.895
313.15 K	795.5	1.681

ClC(Cl)(Cl)Cl [tetrachloromethane]
[1]
Details	mass density	viscosity
303.15 K	1580.6 kg/m3	0.8689 mPa·s
308.15 K	1575.7 kg/m3	0.8307 mPa·s
313.15 K	1570.9 kg/m3 and 1571.3 kg/m3	0.807 mPa·s and 0.8072 mPa·s

CCCCO [butan-1-ol]
[1]
Details	mass density [kg/m3]	viscosity
303.15 K	805.7	2.282 mPa·s
308.15 K	797.2	1.907 mPa·s and 1.895 mPa·s
313.15 K	795.5	1.681 mPa·s

CCCCO [butan-1-ol] + ClC(Cl)(Cl)Cl
[2], x2 = 0
Details	mass density [kg/m3]	viscosity [mPa·s]
303.15 K	805.7	2.282
308.15 K	797.2	1.907
313.15 K	795.5	1.681

ClC(Cl)(Cl)Cl [tetrachloromethane] + C1COCCO1
[2]
Details	mass density, 303.15 K [kg/m3]	mass density, 308.15 K [kg/m3]	mass density, 313.15 K [kg/m3]	viscosity, 303.15 K [mPa·s]	viscosity, 308.15 K [mPa·s]	viscosity, 313.15 K [mPa·s]
x2 = 0	1580.6	1575.7	1570.9	0.8689	0.8307	0.807
x2 = 0.1116	1520.6	1517.3	1513.2	0.945	0.8954	0.8454
x2 = 0.2204	1462.3	1458.6	1455.1	0.9938	0.9391	0.8848
x2 = 0.3265	1405.3	1401.1	1396.9	1.036	0.9771	0.9244
x2 = 0.4299	1349	1344.8	1340.9	1.073	1.01	0.9531
x2 = 0.5307	1294.3	1290.5	1286.9	1.11	1.044	0.9892
x2 = 0.6291	1240.9	1236.2	1232.5	1.136	1.066	1.008
x2 = 0.7252	1187.4	1182.4	1177.9	1.145	1.066	0.9996
x2 = 0.7724	1161.1	1155.9	1150.9	1.145	1.063	0.9971
x2 = 0.819	1134.4	1128.5	1123.2	1.139	1.058	0.9881
x2 = 0.865	1107.7	1101.6	1096	1.131	1.052	0.9836
x2 = 0.9105	1081	1074.7	1069.2	1.123	1.05	0.9785
x2 = 0.9555	1052.6	1046.5	1041.2	1.117	1.046	0.9667

C1COCCO1 [1,4-dioxane] + CCCCO
[2]
Details	mass density, 303.15 K [kg/m3]	mass density, 308.15 K [kg/m3]	mass density, 313.15 K [kg/m3]	viscosity, 303.15 K [mPa·s]	viscosity, 308.15 K [mPa·s]	viscosity, 313.15 K [mPa·s]
x1 = 0.1066	826.5	818.4	816.8	2.011	1.683	1.522
x1 = 0.2116	847.6	839.9	837.9	1.635	1.362	1.281
x1 = 0.3151	868.6	861.3	859	1.37	1.165	1.094
x1 = 0.4171	889.9	882.7	880.2	1.243	1.081	0.9963
x1 = 0.5177	911.3	904.3	901.5	1.164	1.032	0.9565
x1 = 0.6169	932.8	926.2	923.1	1.093	1.007	0.9426
x1 = 0.6659	943.6	937.3	934	1.064	0.9903	0.9289
x1 = 0.7146	954.6	948.4	945.2	1.038	0.9768	0.919
x1 = 0.763	965.6	959.6	956.3	1.016	0.9543	0.9043
x1 = 0.8111	976.7	971	967.4	1.015	0.9484	0.9234
x1 = 0.8588	987.9	982.3	978.6	1.031	0.9507	0.9384
x1 = 0.9062	999.2	993.6	989.7	1.065	0.9793	0.9315
x1 = 1	1022.3	1016.7	1012	1.098	1.03	0.9575
